ChEMBL document CHEMBL1201862, “PubChem BioAssay data set” (2004)
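These data come from cells grown in 96-well plates and exposed to compound for 48 hours at five concentrations. GI50 = concentration required for 50% inhibition of growth.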 The source made the active and inactive calls. Rule as the data show it: active = GI50 up to about 1.1 µM and inactive = higher.

Key:
Assay in all cases: NCI-60 cell line screen, 48 h
TK-10 = system: TK-10
T47D = system: T47D
SK-MEL-28 = system: SK-MEL-28
Hs-578T = system: Hs-578T
SNB-19 = system: SNB-19
NCI-H226 = system: NCI-H226
SNB-75 = system: SNB-75
SK-OV-3 = system: SK-OV-3
OVCAR-8 = system: OVCAR-8
MDA-N = system: MDA-N
SF-268 = system: SF-268
DU-145 = system: DU-145
NCI-H460 = system: NCI-H460
M14 = system: M14
SN12C = system: SN12C
MDA-MB-435 = system: MDA-MB-435
A498 = system: A498
RPMI-8226 = system: RPMI-8226
OVCAR-3 = system: OVCAR-3
KM12 = system: KM12
HT-29 = system: HT-29
UACC-257 = system: UACC-257
786-0 = system: 786-0
IGROV-1 = system: IGROV-1
SF-539 = system: SF-539
Malme-3M = system: Malme-3M
LOX IMVI = system: LOX IMVI
U-251 = system: U-251
RXF 393 = system: RXF 393
HOP-92 = system: HOP-92
OVCAR-4 = system: OVCAR-4
NCI-H522 = system: NCI-H522
MOLT-4 = system: MOLT-4
UACC-62 = system: UACC-62
NCI-H23 = system: NCI-H23
ACHN = system: ACHN
SK-MEL-5 = system: SK-MEL-5
HCT-15 = system: HCT-15
A549 = system: A549
HCT-116 = system: HCT-116
EKVX = system: EKVX
COLO 205 = system: COLO 205
SF-295 = system: SF-295
NCI/ADR-RES = system: NCI/ADR-RES
OVCAR-5 = system: OVCAR-5
K562 = system: K562
SR = system: SR
UO-31 = system: UO-31
SK-MEL-2 = system: SK-MEL-2
MCF7 = system: MCF7
BT-549 = system: BT-549
CAKI-1 = system: CAKI-1
MDA-MB-231 = system: MDA-MB-231
PC-3 = system: PC-3
HOP-62 = system: HOP-62
HL-60 = system: HL-60
SW-620 = system: SW-620

Cn1c(=O)c2nc(CSCc3ccccc3)[nH]c2n(C)c1=O
GI50 (TK-10): > 100 µM (inactive)
GI50 (T47D): > 100 µM (inactive)
GI50 (SK-MEL-28): > 100 µM (inactive)
GI50 (Hs-578T): > 100 µM (inactive)
GI50 (SNB-19): > 100 µM (inactive)
GI50 (NCI-H226): > 100 µM (inactive)
GI50 (SNB-75): > 100 µM (inactive)
GI50 (SK-OV-3): > 100 µM (inactive)
GI50 (OVCAR-8): > 100 µM (inactive)
GI50 (MDA-N): > 100 µM (inactive)
GI50 (SF-268): > 100 µM (inactive)
GI50 (DU-145): > 100 µM (inactive)
GI50 (NCI-H460): > 100 µM (inactive)
GI50 (M14): > 100 µM (inactive)
GI50 (SN12C): 80.5 µM (inactive)
GI50 (MDA-MB-435): > 100 µM (inactive)
GI50 (A498): > 100 µM (inactive)
GI50 (RPMI-8226): 67.6 µM (inactive)
GI50 (OVCAR-3): > 100 µM (inactive)
GI50 (KM12): > 100 µM (inactive)
GI50 (HT-29): 71.4 µM (inactive)
GI50 (UACC-257): > 100 µM (inactive)
GI50 (786-0): > 100 µM (inactive)
GI50 (IGROV-1): > 100 µM (inactive)
GI50 (SF-539): > 100 µM (inactive)
GI50 (Malme-3M): > 100 µM (inactive)
GI50 (LOX IMVI): > 100 µM (inactive)
GI50 (U-251): > 100 µM (inactive)
GI50 (RXF 393): > 100 µM (inactive)
GI50 (HOP-92): > 100 µM (inactive)
GI50 (OVCAR-4): > 100 µM (inactive)
GI50 (NCI-H522): 35.6 µM (inactive)
GI50 (MOLT-4): > 100 µM (inactive)
GI50 (UACC-62): > 100 µM (inactive)
GI50 (NCI-H23): > 100 µM (inactive)
GI50 (ACHN): > 100 µM (inactive)
GI50 (SK-MEL-5): 71.6 µM (inactive)
GI50 (HCT-15): > 100 µM
GI50 (A549): 45.6 µM (inactive)
GI50 (HCT-116): > 100 µM (inactive)
GI50 (EKVX): 24.8 µM (inactive)
GI50 (COLO 205): > 100 µM (inactive)
GI50 (SF-295): 85.7 µM (inactive)
GI50 (NCI/ADR-RES): > 100 µM (inactive)
GI50 (OVCAR-5): > 100 µM (inactive)
GI50 (K562): 78 µM (inactive)
GI50 (SR): > 100 µM (inactive)
GI50 (UO-31): 41.1 µM (inactive)
GI50 (SK-MEL-2): > 100 µM (inactive)
GI50 (MCF7): > 100 µM (inactive)
GI50 (BT-549): > 100 µM (inactive)
GI50 (CAKI-1): > 100 µM (inactive)
GI50 (MDA-MB-231): > 100 µM (inactive)
GI50 (PC-3): > 100 µM (inactive)
GI50 (HOP-62): > 100 µM (inactive)

N#CC(C#N)=CNCCN1CCN(C=C(C#N)C#N)CC1
GI50 (TK-10): > 100 µM (inactive)
GI50 (T47D): > 100 µM (inactive)
GI50 (SK-MEL-28): > 100 µM (inactive)
GI50 (Hs-578T): > 100 µM (inactive)
GI50 (SNB-19): > 100 µM (inactive)
GI50 (NCI-H226): > 100 µM (inactive)
GI50 (SK-OV-3): > 100 µM (inactive)
GI50 (OVCAR-8): > 100 µM (inactive)
GI50 (MDA-N): > 100 µM (inactive)
GI50 (SF-268): > 100 µM (inactive)
GI50 (DU-145): > 100 µM (inactive)
GI50 (NCI-H460): > 100 µM (inactive)
GI50 (M14): > 100 µM (inactive)
GI50 (SN12C): > 100 µM (inactive)
GI50 (MDA-MB-435): > 100 µM (inactive)
GI50 (A498): > 100 µM (inactive)
GI50 (RPMI-8226): > 100 µM (inactive)
GI50 (HL-60): > 100 µM (inactive)
GI50 (OVCAR-3): > 100 µM (inactive)
GI50 (KM12): > 100 µM (inactive)
GI50 (HT-29): > 100 µM (inactive)
GI50 (SW-620): > 100 µM (inactive)
GI50 (UACC-257): > 100 µM (inactive)
GI50 (786-0): > 100 µM (inactive)
GI50 (IGROV-1): > 100 µM (inactive)
GI50 (SF-539): > 100 µM (inactive)
GI50 (Malme-3M): > 100 µM (inactive)
GI50 (LOX IMVI): > 100 µM (inactive)
GI50 (U-251): > 100 µM (inactive)
GI50 (HOP-92): > 100 µM (inactive)
GI50 (OVCAR-4): > 100 µM (inactive)
GI50 (NCI-H522): > 100 µM (inactive)
GI50 (MOLT-4): > 100 µM (inactive)
GI50 (UACC-62): > 100 µM (inactive)
GI50 (NCI-H23): > 100 µM (inactive)
GI50 (ACHN): > 100 µM (inactive)
GI50 (SK-MEL-5): > 100 µM (inactive)
GI50 (HCT-15): > 100 µM
GI50 (A549): > 100 µM (inactive)
GI50 (HCT-116): > 100 µM (inactive)
GI50 (EKVX): > 100 µM (inactive)
GI50 (COLO 205): > 100 µM (inactive)
GI50 (SF-295): > 100 µM (inactive)
GI50 (NCI/ADR-RES): > 100 µM (inactive)
GI50 (OVCAR-5): > 100 µM (inactive)
GI50 (K562): > 100 µM (inactive)
GI50 (SR): > 100 µM (inactive)
GI50 (UO-31): > 100 µM (inactive)
GI50 (SK-MEL-2): > 100 µM (inactive)
GI50 (MCF7): > 100 µM (inactive)
GI50 (BT-549): > 100 µM (inactive)
GI50 (CAKI-1): > 100 µM (inactive)
GI50 (MDA-MB-231): > 100 µM (inactive)
GI50 (PC-3): > 100 µM (inactive)
GI50 (HOP-62): > 100 µM (inactive)
